# US20120196933A1, “MEXILETINE PRODRUGS” (priority 2010, published 2012)
# Structures can show the parent of a compound that is named as a salt. Where two headings read alike, the source gives them in different places. Marks after values point to notes of the source that are not given here.
# Experiments:
# [1] = Systemic availability of mexiletine in the cynomolgus monkey from mexiletine prodrugs (oral gavage); format: in vivo; details: 1 mg/kg mexiletine free base; for AUC of mexiletine / Cmax of mexiletine / T50% Cmax: plasma mexiletine; for F(rel): relative to mexiletine
# Description: Test substances (i.e., mexiletine, and various mexiletine amino acid prodrugs) were administered by oral gavage to groups of two and, in one case, five male cynomolgus monkeys. Blood samples were taken at various times after administration and submitted to analysis for the parent drug using a validated LC-MS-MS assay. Pharmacokinetic parameters derived from the plasma bioanalytical data were determined using Win Nonlin.
# [2] = Systemic availability of mexiletine in the dog from mexiletine prodrugs (oral gavage); format: in vivo; details: for AUC of mexiletine / Cmax of mexiletine / T50% Cmax / F(rel): 1 mg/kg mexiletine free base; for AUC of mexiletine / Cmax of mexiletine / T50% Cmax: plasma mexiletine; for F(rel): relative to mexiletine
# Description: Test substances (i.e., mexiletine, and various mexiletine amino acid prodrugs) were administered by oral gavage to groups of two or some cases five dogs. The characteristics of the test animals are set out in Table 6.
# Blood samples were taken at various times after administration and submitted to analysis for parent drug using a validated LC-MS-MS assay. Pharmacokinetic parameters derived from the plasma bioanalytical data were determined using Win Nonlin.
# [3] = In vitro stability of mexiletine prodrugs under conditions prevailing in the gut; format: physicochemical; details: 0.1M phosphate buffer pH 7.4, 2 h
# [4] = as above; format: physicochemical; details: HPLC; for Simulated gastric fluid (pH 1.1): % remaining after 2 h/37° C.: simulated gastric fluid pH 1.1, 2 h; for Simulated intestinal fluid (pH 6.8): % remaining after 2 h/37° C.: simulated intestinal fluid pH 6.8, 2 h
# Description: To investigate if the prodrugs of the present invention are stable in conditions mimicking the gut, various mexiletine amino acid prodrugs were incubated at 37° C. in simulated gastric and simulated intestinal juice (USP defined composition) for 2 hours. The remaining concentrations of the prodrug were then assayed by HPLC.
# [5] = oral, cited from earlier work
# [6] = tested on: patients with myotonic disorders; details: 1200 mg daily tocamide or 600 mg daily mexiletine, three divided doses; cited from earlier work
structure (smiles),measurement,setting,value
"Cc1cccc(C)c1OCC(C)NC(=O)[C@@H](N)C[S+](C)[O-].O=C(O)C(F)(F)F (stereo partly drawn) [Mexiletine [(R)-S-methyl-cysteine, Mexiletine [(R)—S-Methyl-Cysteine Sulfoxide] Amide Trifluoroacetate]",AUC of mexiletine,[1],432 ng·h/mL
same,Cmax of mexiletine,[1],62.2 ng/mL
same,T50% Cmax,[1],4.80 h
same,F(rel),"[1]; listed as Mexiletine methyl-cysteine sulfoxide amide, 1 mg/kg",62.6%
same,AUC of mexiletine,[2],144 ng·h/mL
same,Cmax of mexiletine,[2],59.9 ng/mL
same,T50% Cmax,[2],1.63 h
same,F(rel),[2],13.4%
Cc1cccc(C)c1OCC(C)NC(=O)c1ccncc1 (stereo not drawn) [Mexiletine isonicotinic acid amide],Bioavailability with respect to mexiletine,[2],negligible
Cc1cccc(C)c1OCC(C)NC(=O)C(N)CO (stereo not drawn) [Mexiletine serine amide],T50% Cmax,[1],5.05 h
same,T50% Cmax,[2],6.00 h
"Cc1cccc(C)c1OCC(C)NC(=O)[C@@H](N)CC[S+](C)C (stereo partly drawn) [Mexiletine S-methyl-methionine chloride, Mexiletine-[(S)—S-Methyl-Methionine Chloride] Amide Hydrochloride]","pH 7.4, 37° C. 0.1M phosphate buffer: % remaining after 2 h/37° C.",[3],99.8%
same,Simulated gastric fluid (pH 1.1): % remaining after 2 h/37° C.,[4],99.2%
same,Simulated intestinal fluid (pH 6.8): % remaining after 2 h/37° C.,[4],99.4%
same,T50% Cmax,[1],5.99 h
same,T50% Cmax,[2],5.92 h
NCC1(CC(=O)O)CCCCC1 [gabapentin],Bioavailability,[5]; 900 mg/day gabapentin,approximately 60%
same,Bioavailability,[5]; 1200 mg/day gabapentin,~47%
same,Bioavailability,[5]; 2400 mg/day gabapentin,~34%
same,Bioavailability,[5]; 3600 mg/day gabapentin,~33%
same,Bioavailability,[5]; 4800 mg/day gabapentin,~27%
"Cc1cccc(C)c1OCC(C)NC(=O)C(N)CCCNC(=N)N(C)C.Cl.Cl (mixture of isomers) [Mexiletine-(S)—N,N-Dimethylarginine Amide Dihydrochloride]","pH 7.4, 37° C. 0.1M phosphate buffer: % remaining after 2 h/37° C.",[3],99.6%
same,Simulated gastric fluid (pH 1.1): % remaining after 2 h/37° C.,[4],99.7%
same,Simulated intestinal fluid (pH 6.8): % remaining after 2 h/37° C.,[4],96.8%
"CNC(=N)NCCC[C@H](N)C(=O)NC(C)COc1c(C)cccc1C (stereo partly drawn) [Mexiletine (S)-N-methylarginine amide, Mexiletine-(S)—N-Methylarginine Amide Dihydrochloride]","pH 7.4, 37° C. 0.1M phosphate buffer: % remaining after 2 h/37° C.",[3],99.9%
same,Simulated gastric fluid (pH 1.1): % remaining after 2 h/37° C.,[4],99.8%
same,Simulated intestinal fluid (pH 6.8): % remaining after 2 h/37° C.,[4],93.6%
"Cc1cccc(C)c1OCC(C)NC(=O)[C@@H](N)C(C)(C)O (stereo partly drawn) [Mexiletine [^α-hydroxy-(5)-valine] amide, Mexiletine [β-hydroxy-(S)-valine] amide]",Cmax of mexiletine,[1],BLQ
same,Cmax of mexiletine,[2],1.68 ng/mL
"Cc1cccc(C)c1OCC(C)NC(=O)[C@@H](N)C(C)C.Cl (stereo partly drawn) [Mexiletine valine amide, Mexiletine-(S)-Valine Amide Hydrochloride]","pH 7.4, 37° C. 0.1M phosphate buffer: % remaining after 2 h/37° C.",[3],98.8%
same,Simulated gastric fluid (pH 1.1): % remaining after 2 h/37° C.,[4],98.7%
same,Simulated intestinal fluid (pH 6.8): % remaining after 2 h/37° C.,[4],98.3%
same,T50% Cmax,[2],5.0** h
Cc1cccc(C)c1OCC(C)NC(=O)C(N)C1CC1 (stereo not drawn) [Mexiletine cyclopropyl glycine amide],Cmax of mexiletine,[1],0.895 ng/mL
same,Cmax of mexiletine,[2],0.703 ng/mL
"Cc1cccc(C)c1OCC(C)NC(=O)[C@@H](N)CCCCN=C(N)N.Cl.Cl (stereo partly drawn) [Mexiletine homo arginine amide, Mexiletine-(S)-Homoarginine Amide Dihydrochloride]",AUC of mexiletine,[1],424 ng·h/mL
same,Cmax of mexiletine,[1],56.8 ng/mL
same,T50% Cmax,[1],5.13 h
same,F(rel),[1],61.5%
same,AUC of mexiletine,[2],563 ng·h/mL
same,Cmax of mexiletine,[2],86.9 ng/mL
same,T50% Cmax,[2],5.39 h
same,F(rel),[2],52.4%
Cc1cccc(C)c1OCC(C)NC(=O)[C@@H](N)CCC(N)=O.Cl (stereo partly drawn) [Mexiletine glutamine amide],AUC of mexiletine,[1],649 ng·h/mL
same,Cmax of mexiletine,[1],105 ng/mL
same,T50% Cmax,[1],4.0 h
same,F(rel),[1],94.1%
same,Bioavailability with respect to mexiletine,[2],near complete
same,AUC of mexiletine,[2],790 ng·h/mL
same,Cmax of mexiletine,[2],117 ng/mL
same,T50% Cmax,[2],5.60 h
same,F(rel),[2],73.5%
"CC(=O)N[C@@H](CCCCN)C(=O)NC(C)COc1c(C)cccc1C.Cl (stereo partly drawn) [Mexiletine [(S)-N^α-acetyl-lysine] amide, Mexiletine [(S)—N^α-Acetyl-Lysine] Amide Hydrochloride]",AUC of mexiletine,[1],363 ng·h/mL
same,Cmax of mexiletine,[1],30.3 ng/mL
same,T50% Cmax,[1],8.98 h
same,F(rel),"[1]; Hydrochloride, 1 mg/kg",60%
same,F(rel),"[1]; listed as Mexiletine acetyl Lysine amide, Hydrochloride, 1 mg/kg",52.6%
same,AUC of mexiletine,[2],893 ng·h/mL
same,Cmax of mexiletine,[2],90.8 ng/mL
same,T50% Cmax,[2],8.08 h
same,F(rel),"[2]; listed as Mexiletine α acetyl lysine amide, Hydrochloride, 1 mg/kg",83.1%
Cc1cccc(C)c1OCC(C)NC(=O)CCN (stereo not drawn) [Mexiletine β alanine amide],Cmax of mexiletine,[1],BLQ
same,Cmax of mexiletine,[2],BLQ
"Cc1cccc(C)c1OCC(C)NC(=O)[C@@H](N)CCCN (stereo partly drawn) [Mexiletine ornithine amide, Mexiletine-(S)-Ornithine Amide Di-hydrochloride]","pH 7.4, 37° C. 0.1M phosphate buffer: % remaining after 2 h/37° C.",[3],99.5%
same,Simulated gastric fluid (pH 1.1): % remaining after 2 h/37° C.,[4],99.7%
same,Simulated intestinal fluid (pH 6.8): % remaining after 2 h/37° C.,[4],99.8%
Cc1cccc(C)c1NC(=O)C(C)N (stereo not drawn) [tocamide],Increase in the speed of stair step movement,[6],2.7 fold
same,Reduction in the time taken for eye opening,[6],7 fold
same,Reduction of hand opening time,[6],4.2 fold
"Cc1cccc(C)c1OCC(C)NC(=O)[C@@H](NC(=O)[C@@H](N)C(C)C)C(C)C.Cl (stereo partly drawn) [Mexiletine valine-valine amide, Mexiletine-valine-valine Amide Hydrochloride]",T50% Cmax,[2],4.25** h
"Cc1cccc(C)c1OCC(C)NC(=O)[C@@H](N)Cc1ccccc1.Cl (stereo partly drawn) [Mexiletine phenylalanine amide, Mexiletine-(S)-Phenylalanine Amide Hydrochloride]",T50% Cmax,[2],3.5** h
Cc1cccc(C)c1OCC(C)NC(=O)c1cccnc1 (stereo not drawn) [Mexiletine nicotinic acid amide],Bioavailability with respect to mexiletine,[2],negligible
same,Cmax of mexiletine,[2],BLQ
Cc1cccc(C)c1OCC(C)NC(=O)C(N)CN (stereo not drawn),AUC of mexiletine,[1],801 ng·h/mL
same,Cmax of mexiletine,[1],82.7 ng/mL
same,T50% Cmax,[1],7.88 h
same,F(rel),[1],116%
same,AUC of mexiletine,[2],8371 ng·h/mL
same,Cmax of mexiletine,[2],103 ng/mL
same,T50% Cmax,[2],10.0 h
same,F(rel),[2],77.9%
Cc1cccc(C)c1OCC(C)NC(=O)C(N)CCCNC(=N)N (stereo not drawn) [Mexiletine arginine amide],T50% Cmax,[1],4.48 h
same,T50% Cmax,[2],6.5** h
"Cc1cccc(C)c1OCC(C)NC(=O)[C@@H](N)CC(=O)O (stereo partly drawn) [Mexiletine-(S)-aspartic acid amide, Mexiletine-(S)-Aspartic Acid Amide Hydrochloride]","pH 7.4, 37° C. 0.1M phosphate buffer: % remaining after 2 h/37° C.",[3],99.9%
same,Simulated gastric fluid (pH 1.1): % remaining after 2 h/37° C.,[4],99.2%
same,Simulated intestinal fluid (pH 6.8): % remaining after 2 h/37° C.,[4],99.9%
Cc1cccc(C)c1OCC(C)NC(=O)C(N)CCCNC(N)=O (stereo not drawn) [Mexiletine citrulline amide],T50% Cmax,[2],3.0** h
